Common to all, as to assay type: biochemical
The target of test [1] is T1, FLT3-D835Y (Homo sapiens, UniProt P36888, D835Y).
T1 construct: purchased Invitrogen PV3967
T1 sequence (P36888 27-993 D835Y): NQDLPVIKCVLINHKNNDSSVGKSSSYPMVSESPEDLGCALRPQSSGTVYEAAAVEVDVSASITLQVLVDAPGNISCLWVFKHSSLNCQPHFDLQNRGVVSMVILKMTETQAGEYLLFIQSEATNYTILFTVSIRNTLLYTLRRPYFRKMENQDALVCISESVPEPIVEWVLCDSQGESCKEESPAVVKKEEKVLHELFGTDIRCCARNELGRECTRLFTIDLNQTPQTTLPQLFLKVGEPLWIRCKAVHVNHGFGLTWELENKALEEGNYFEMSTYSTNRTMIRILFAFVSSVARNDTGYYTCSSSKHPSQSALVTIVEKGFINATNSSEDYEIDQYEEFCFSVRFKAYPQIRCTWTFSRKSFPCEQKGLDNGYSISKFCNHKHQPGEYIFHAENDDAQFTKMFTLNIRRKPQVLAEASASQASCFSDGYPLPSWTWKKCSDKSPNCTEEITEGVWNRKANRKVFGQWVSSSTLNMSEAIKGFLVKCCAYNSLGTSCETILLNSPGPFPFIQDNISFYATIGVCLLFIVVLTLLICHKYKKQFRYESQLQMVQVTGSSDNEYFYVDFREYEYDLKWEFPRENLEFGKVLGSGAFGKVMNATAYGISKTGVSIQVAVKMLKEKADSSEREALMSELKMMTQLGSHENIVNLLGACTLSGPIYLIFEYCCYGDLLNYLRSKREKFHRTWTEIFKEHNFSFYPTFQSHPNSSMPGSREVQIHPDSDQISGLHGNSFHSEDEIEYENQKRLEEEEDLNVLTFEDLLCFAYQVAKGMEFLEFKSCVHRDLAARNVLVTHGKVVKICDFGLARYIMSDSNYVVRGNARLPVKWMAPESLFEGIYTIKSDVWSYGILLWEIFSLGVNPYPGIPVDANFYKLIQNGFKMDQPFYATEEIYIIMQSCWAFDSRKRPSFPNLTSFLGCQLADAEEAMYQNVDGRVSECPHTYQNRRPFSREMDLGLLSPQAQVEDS
Nature of the test: FLT3-D835Y recombinant enzyme kinase assay (AlphaScreen). To be noted: 8 pt, GMean. Put shortly:
(§1)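 IC50 values are derived from reduced AlphaScreen signal as inhibitors block tyrosine phosphorylation of a biotinylated poly(Glu4-Tyr) peptide (30 nM) by recombinant kinase. FLT3 variants are run at 10 μM ATP, c-KIT at 100 μM.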
A general note: Bead proximity is the source of the signal in Alpha formats.

For test [2], the target named is T2, c-KIT (Homo sapiens, UniProt P10721).
T2 construct: purchased Millipore 14-559K
Description: c-KIT recombinant enzyme kinase assay (AlphaScreen). To be noted: 100 ATP, 8 pt. Put shortly:
as §1

In test [3] the target is CSF1R (Homo sapiens, UniProt P07333). Nature of the test: CSF1R 100 ATP 8 pt kinase assay (Table 6). From the text: The following Table 6 provides data indicating FLT3 ITD, D835Y and F691L; c-KIT and CSF1R biochemical and/or cell inhibitory activity for exemplary compounds as described herein.

The term IC50 denotes the point on the concentration scale where inhibition reaches its midpoint.

T2 sequence (P10721 26-976): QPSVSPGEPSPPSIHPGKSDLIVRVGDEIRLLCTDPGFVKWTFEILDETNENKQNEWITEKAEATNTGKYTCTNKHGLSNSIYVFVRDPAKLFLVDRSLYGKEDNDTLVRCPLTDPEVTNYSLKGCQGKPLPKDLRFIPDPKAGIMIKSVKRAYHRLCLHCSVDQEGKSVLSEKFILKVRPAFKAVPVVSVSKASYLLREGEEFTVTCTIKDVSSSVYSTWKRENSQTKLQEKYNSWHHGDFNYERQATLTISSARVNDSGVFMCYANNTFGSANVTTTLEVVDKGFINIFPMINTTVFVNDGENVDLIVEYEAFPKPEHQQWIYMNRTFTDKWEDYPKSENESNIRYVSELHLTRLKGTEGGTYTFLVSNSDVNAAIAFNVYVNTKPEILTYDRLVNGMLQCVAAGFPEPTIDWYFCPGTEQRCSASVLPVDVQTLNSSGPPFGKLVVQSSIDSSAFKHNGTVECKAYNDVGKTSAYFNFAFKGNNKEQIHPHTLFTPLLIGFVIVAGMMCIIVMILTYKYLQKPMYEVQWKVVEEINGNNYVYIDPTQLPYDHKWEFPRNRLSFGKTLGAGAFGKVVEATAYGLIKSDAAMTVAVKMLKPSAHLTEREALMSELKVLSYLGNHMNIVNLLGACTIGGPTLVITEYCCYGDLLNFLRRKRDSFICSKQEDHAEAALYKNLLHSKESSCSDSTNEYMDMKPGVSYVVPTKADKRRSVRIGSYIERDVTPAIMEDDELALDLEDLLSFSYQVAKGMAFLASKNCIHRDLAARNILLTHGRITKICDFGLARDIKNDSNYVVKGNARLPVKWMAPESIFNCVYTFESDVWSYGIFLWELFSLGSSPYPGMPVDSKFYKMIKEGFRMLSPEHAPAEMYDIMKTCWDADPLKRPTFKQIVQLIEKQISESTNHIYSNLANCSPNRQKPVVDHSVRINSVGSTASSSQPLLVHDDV
CSF1R, sequence (P07333 20-972, species assumed): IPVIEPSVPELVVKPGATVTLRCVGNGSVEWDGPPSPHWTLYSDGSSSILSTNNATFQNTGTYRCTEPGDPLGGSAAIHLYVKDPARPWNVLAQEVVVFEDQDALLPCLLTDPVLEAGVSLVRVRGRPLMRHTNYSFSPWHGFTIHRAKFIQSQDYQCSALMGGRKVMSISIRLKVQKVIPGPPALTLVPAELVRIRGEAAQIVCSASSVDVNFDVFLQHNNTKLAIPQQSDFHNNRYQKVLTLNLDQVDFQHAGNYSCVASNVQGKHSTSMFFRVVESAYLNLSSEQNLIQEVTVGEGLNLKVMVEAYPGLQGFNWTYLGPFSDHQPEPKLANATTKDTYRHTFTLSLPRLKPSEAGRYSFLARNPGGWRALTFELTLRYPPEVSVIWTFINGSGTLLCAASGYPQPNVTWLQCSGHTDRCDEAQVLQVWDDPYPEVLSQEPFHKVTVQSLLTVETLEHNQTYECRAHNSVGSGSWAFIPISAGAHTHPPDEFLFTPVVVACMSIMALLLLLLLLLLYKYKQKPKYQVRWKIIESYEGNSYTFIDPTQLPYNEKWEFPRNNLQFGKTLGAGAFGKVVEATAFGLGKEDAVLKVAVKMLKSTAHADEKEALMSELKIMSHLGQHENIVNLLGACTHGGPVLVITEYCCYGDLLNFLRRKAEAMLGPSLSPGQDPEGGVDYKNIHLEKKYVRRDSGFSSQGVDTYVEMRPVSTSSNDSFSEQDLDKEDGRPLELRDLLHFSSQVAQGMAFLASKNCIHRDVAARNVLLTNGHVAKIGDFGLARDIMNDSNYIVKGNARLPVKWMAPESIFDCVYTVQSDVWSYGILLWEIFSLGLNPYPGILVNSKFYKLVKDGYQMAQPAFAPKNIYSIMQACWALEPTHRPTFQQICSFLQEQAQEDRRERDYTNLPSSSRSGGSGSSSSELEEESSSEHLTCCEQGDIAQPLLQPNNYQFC

For the molecule `Cn1cnc(Nc2ncc(-c3ccc(CC(=O)Nc4cnc(F)c(C(C)(F)F)c4)cc3)cn2)c1` [Compound P-0168, N-[5-(1,1-difluoroethyl)-6-fluoro-3-pyridyl]-2-[4-[2-[(1-methylimidazol-4-yl)amino]pyrimidin-5-yl]phenyl]acetamide], the IC50 in test [1] and in test [2] was 0.0001 to 10 µM in each case.
`Cn1cnc(Nc2ncc(-c3ccc(CC(=O)Nc4cc(C(C)(F)F)ccn4)cc3)cn2)c1` [Compound P-0169, N-[4-(1,1-difluoroethyl)-2-pyridyl]-2-[4-[2-[(1-methylimidazol-4-yl)amino]pyrimidin-5-yl]phenyl]acetamide]: the IC50 in test [1] and in test [2] was 0.0001 to 10 µM throughout.
With `Cn1cnc(Nc2ncc(-c3ccc(CC(=O)Nc4cnc(F)c(C(C)(F)F)c4)cc3F)cn2)c1` [Compound P-0170, N-[5-(1,1-difluoroethyl)-6-fluoro-3-pyridyl]-2-[3-fluoro-4-[2-[(1-methylimidazol-4-yl)amino]pyrimidin-5-yl]phenyl]acetamide], the IC50 in test [1] and in test [2] was 0.0001 to 10 µM throughout.
In the case of `Cc1n[nH]c2ncc(-c3cc(F)c(CC(=O)Nc4cncc(C(F)(F)F)c4)cc3F)cc12` [Compound P-0173, 2-[2,5-difluoro-4-(3-methyl-1H-pyrazolo[3,4-b]pyridin-5-yl)phenyl]-N-[5-(trifluoromethyl)-3-pyridyl]acetamide], the IC50 in test [3], in test [1] and in test [2] was 0.0001 to 10 µM throughout.
On to `COc1ncc(NC(=O)Cc2ccc(-c3cnc4[nH]nc(C)c4c3)c(F)c2)cc1C(F)(F)F` [Compound P-0174, 2-[3-fluoro-4-(3-methyl-1H-pyrazolo[3,4-b]pyridin-5-yl)phenyl]-N-[6-methoxy-5-(trifluoromethyl)-3-pyridyl]acetamide], for which the IC50 in test [3], in test [1] and in test [2] was 0.0001 to 10 µM in each case.
For the molecule `Cc1ncc(NC(=O)Cc2cc(F)c(-c3cnc4[nH]nc(C)c4c3)cc2F)cc1C(F)(F)F` [Compound P-0175, 2-(2,5-difluoro-4-(3-methyl-1H-pyrazolo[3,4-b]pyridin-5-yl)phenyl)-N-(6-methyl-5-(trifluoromethyl)pyridin-3-yl)acetamide], the IC50 in test [3], in test [1] and in test [2] was 0.0001 to 10 µM in each case.
As to `COc1ncc(NC(=O)Cc2cc(F)c(-c3cnc4[nH]nc(C)c4c3)cc2F)cc1C(F)(F)F` [Compound P-0176, 2-[2,5-difluoro-4-(3-methyl-1H-pyrazolo[3,4-b]pyridin-5-yl)phenyl]-N-[6-methoxy-5-(trifluoromethyl)-3-pyridyl]acetamide], the IC50 in test [1] and in test [2] was 0.0001 to 10 µM each time.
Take `Cc1n[nH]c2ncc(-c3ccc(CC(=O)Nc4cncc(C(F)(F)F)c4)cc3F)cc12` [Compound P-0177, 2-[3-fluoro-4-(3-methyl-1H-pyrazolo[3,4-b]pyridin-5-yl)phenyl]-N-[5-(trifluoromethyl)-3-pyridyl]acetamide]: the IC50 in test [3], in test [1] and in test [2] was 0.0001 to 10 µM in each case.
As to `COCCn1cc(Nc2ncc(-c3ccc(CC(=O)Nc4cncc(C(F)(F)F)c4)cc3)cn2)cn1` [Compound P-0178, 2-[4-[2-[[1-(2-methoxyethyl)pyrazol-4-yl]amino]pyrimidin-5-yl]phenyl]-N-[5-(trifluoromethyl)-3-pyridyl]acetamide], the IC50 in test [1] and in test [2] was 0.0001 to 10 µM in each case.
Regarding `COCCn1cc(Nc2ncc(-c3ccc(CC(=O)Nc4cnc(C)c(C(F)(F)F)c4)cc3)cn2)cn1` [Compound P-0179, 2-[4-[2-[[1-(2-methoxyethyl)pyrazol-4-yl]amino]pyrimidin-5-yl]phenyl]-N-[6-methyl-5-(trifluoromethyl)-3-pyridyl]acetamide], the IC50 in test [1] and in test [2] was 0.0001 to 10 µM throughout.
Regarding `COc1nn(C[C@H](C)O)cc1Nc1ncc(-c2ccc(CC(=O)Nc3cnc(C)c(C(F)(F)F)c3)cc2)cn1` [Compound P-0180, 2-[4-[2-[[1-[(2S)-2-hydroxypropyl]-3-methoxy-pyrazol-4-yl]amino]pyrimidin-5-yl]phenyl]-N-[6-methyl-5-(trifluoromethyl)-3-pyridyl]acetamide], the IC50 in test [1] and in test [2] was 0.0001 to 10 µM each time.
As to `O=C(Cc1ccc(-c2cnc3[nH]c(-c4ccnc(N5CCOCC5)c4)cc3c2)cn1)Nc1ccnc(C(F)(F)F)c1` [Compound P-0181, 2-[5-[2-(2-morpholino-4-pyridyl)-1H-pyrrolo[2,3-b]pyridin-5-yl]-2-pyridyl]-N-[2-(trifluoromethyl)-4-pyridyl]acetamide], the IC50 in test [1] and in test [2] was 0.0001 to 10 µM throughout.
As to `N#Cc1cc(-c2cc3cc(-c4ccc(CC(=O)Nc5ccnc(C(F)(F)F)c5)nc4)cnc3[nH]2)ccn1` [Compound P-0182, 2-[5-[2-(2-cyano-4-pyridyl)-1H-pyrrolo[2,3-b]pyridin-5-yl]-2-pyridyl]-N-[2-(trifluoromethyl)-4-pyridyl]acetamide], the IC50 in test [1] and in test [2] was 0.0001 to 10 µM each time.
As to `O=C(Cc1ccc(-c2cnc3[nH]c(-c4ccc(N5CCOCC5)nc4)cc3c2)cn1)Nc1ccnc(C(F)(F)F)c1` [Compound P-0183, 2-[5-[2-(6-morpholino-3-pyridyl)-1H-pyrrolo[2,3-b]pyridin-5-yl]-2-pyridyl]-N-[2-(trifluoromethyl)-4-pyridyl]acetamide], the half-maximal inhibitory concentration (IC50) in test [1] and in test [2] was 0.0001 to 10 µM in each case.
On to `N#Cc1cc(-c2cc3cc(-c4ccc(CC(=O)Nc5cc(C(F)(F)F)ccn5)cc4F)cnc3[nH]2)ccn1` [Compound P-0194, 2-[4-[2-(2-cyano-4-pyridyl)-1H-pyrrolo[2,3-b]pyridin-5-yl]-3-fluoro-phenyl]-N-[4-(trifluoromethyl)-2-pyridyl]acetamide], for which the IC50 in test [1] and in test [2] was 0.0001 to 10 µM throughout.
As to `N#Cc1ccc(-c2cc3cc(-c4ccc(CC(=O)Nc5cncc(C(F)(F)F)c5)cc4F)cnc3[nH]2)cn1` [Compound P-0195, 2-[4-[2-(6-cyano-3-pyridyl)-1H-pyrrolo[2,3-b]pyridin-5-yl]-3-fluoro-phenyl]-N-[5-(trifluoromethyl)-3-pyridyl]acetamide], the IC50 in test [1] and in test [2] was 0.0001 to 10 µM throughout.
On to `COc1ccc(-c2cc3cc(-c4ccc(CC(=O)Nc5cncc(C(F)(F)F)c5)cc4F)cnc3[nH]2)cn1` [Compound P-0196, 2-[3-fluoro-4-[2-(6-methoxy-3-pyridyl)-1H-pyrrolo[2,3-b]pyridin-5-yl]phenyl]-N-[5-(trifluoromethyl)-3-pyridyl]acetamide], for which the IC50 in test [1] and in test [2] was 0.0001 to 10 µM each time.
Regarding `O=C(Cc1ccc(-c2cnc3[nH]c(-c4ccc(N5CCOCC5)nc4)cc3c2)c(F)c1)Nc1cncc(C(F)(F)F)c1` [Compound P-0198, 2-[3-fluoro-4-[2-(6-morpholino-3-pyridyl)-1H-pyrrolo[2,3-b]pyridin-5-yl]phenyl]-N-[5-(trifluoromethyl)-3-pyridyl]acetamide], the IC50 in test [1] and in test [2] was 0.0001 to 10 µM each time.

The values above are taken from patent publication US10160747B2, “Compounds and methods for kinase modulation, and indications therefor” (Plexxikon Inc., priority 2016, dated 2018).
